# Data taken from ChEMBL document CHEMBL1145868, “Small, low nanomolar, noncovalent thrombin inhibitors lacking a group to fill the 'distal binding pocket'” (Bioorg Med Chem Lett, 2003).
# Key:
# Prothrombin = Prothrombin (Homo sapiens, UniProt P00734); experiment: Inhibition of thrombin in human plasma; assay type: cell-free
# Homo sapiens [1] = species on record: Homo sapiens; experiment: Concentration required to double the human activated partial thromboplastin time in human plasma; assay type: functional
# Trypsin = Trypsin (Homo sapiens, UniProt P07477+P07478+P35030); experiment: Inhibition of trypsin in human plasma; assay type: cell-free
# Homo sapiens [2] = species on record: Homo sapiens; experiment: Protein binding affinity in human plasma, expressed as percent unbound (free); assay type: functional
SMILES,Ki (Prothrombin) [nM],Concentration (Homo sapiens [1]) [µM],Ki (Trypsin) [µM],Unbound (Homo sapiens [2]) [%]
Cc1ccc(NS(=O)(=O)Cc2ccccc2)c(=O)n1CC(=O)NCc1cc(Cl)ccc1Cl,24,2.7,100,
Cc1cc(C(F)(F)F)c(N)c(=O)n1CC(=O)NCc1cc(Cl)ccc1OCC(=O)N(C)C,,,> 100,
CCNC(=O)COc1ccc(Cl)cc1CNC(=O)Cn1c(C)cc(C(F)(F)F)c(N)c1=O,8.5,2.1,10,
CCNC(=O)COc1ccc(Cl)cc1CNC(=O)Cn1c(C)cnc(NCCc2ccccc2)c1=O,0.07,1.2,1,1
Cc1nc(N)ccc1CNC(=O)Cn1c(C)cc(C(F)(F)F)c(N)c1=O,340,,20,
CCNC(=O)COc1ccc(Cl)cc1CNC(=O)[C@@H]1CCCN1C(=O)[C@H](N)C1CCCCC1,,0.41,23,15
Cc1cc(C(F)(F)F)c(N)c(=O)n1CC(=O)NCc1cc(Cl)ccc1OCC(=O)NCCN(C)C,18,1.3,14,
Cc1ccc(NS(=O)(=O)Cc2ccccc2)c(=O)n1CC(=O)NCc1cccc(Cl)c1,7,2.8,20,
Cc1cc(C(F)(F)F)c(N)c(=O)n1CC(=O)NCc1cc(Cl)ccc1OCC(=O)NCCCN(C)C,7.4,0.7,11,18
Cc1nc(N)ccc1CNC(=O)Cn1c(C)cnc(NCCc2ccccc2)c1=O [L-375378],,0.41,1.8,6
CNC(=O)COc1ccc(Cl)cc1CNC(=O)Cn1c(C)cc(C(F)(F)F)c(N)c1=O,15,2.5,7.1,
Cc1nc(N)ccc1CNC(=O)Cn1c(C)cnc(N)c1=O,900,,23,
CCNC(=O)COc1ccc(Cl)cc1CNC(=O)Cn1c(C)cnc(N)c1=O,12,1.6,7.2,20
N[C@@H](C(=O)N1CCC[C@H]1C(=O)NCc1cc(Cl)ccc1Cl)C1CCCCC1,,0.95,29,4
CCNC(=O)COc1ccc(Cl)cc1CNC(=O)Cn1c(C)ccc(NS(=O)(=O)Cc2ccccc2)c1=O,0.04,0.79,2,
